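Tested at 5 concentrations; 48 h exposure; 96-well plates; endpoints linearly interpolated, else capped at highest concentration. The concentration for 50% growth inhibition is given as GI50.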 Calls of active or inactive are those of the source. Cut-off read from the data, not from the text of the source: active = GI50 up to about 1.1 µM and inactive = higher.
How the values were obtained:
Test in all cases: inhibition of tumour cell growth, NCI panel, 48 h
PC-3 = test system: PC-3
DU-145 = test system: DU-145
SF-268 = test system: SF-268
OVCAR-3 = test system: OVCAR-3
MDA-MB-435 = test system: MDA-MB-435
CCRF-CEM = test system: CCRF-CEM
SF-295 = test system: SF-295
NCI-H23 = test system: NCI-H23
OVCAR-4 = test system: OVCAR-4
A498 = test system: A498
SW-620 = test system: SW-620
K562 = test system: K562
MDA-MB-231 = test system: MDA-MB-231
MOLT-4 = test system: MOLT-4
SNB-19 = test system: SNB-19
HOP-92 = test system: HOP-92
KM12 = test system: KM12
MDA-N = test system: MDA-N
BT-549 = test system: BT-549
UACC-62 = test system: UACC-62

SMILES | GI50 (PC-3) | GI50 (DU-145) | GI50 (SF-268) | GI50 (OVCAR-3) | GI50 (MDA-MB-435) | GI50 (CCRF-CEM) | GI50 (SF-295) | GI50 (NCI-H23) | GI50 (OVCAR-4) | GI50 (A498) | GI50 (SW-620) | GI50 (K562) | GI50 (MDA-MB-231) | GI50 (MOLT-4) | GI50 (SNB-19) | GI50 (HOP-92) | GI50 (KM12) | GI50 (MDA-N) | GI50 (BT-549) | GI50 (UACC-62)
COc1ccccc1Cn1nc(OC)c2cc([N+](=O)[O-])ccc21 | > 100 µM (inactive) | > 100 µM (inactive) | 13.1 µM (inactive) | > 100 µM (inactive) | > 71 µM (inactive) | > 100 µM (inactive) | 6.3 µM (inactive) | 35.6 µM (inactive) | 13.4 µM (inactive) | 26.9 µM (inactive) | > 100 µM (inactive) | > 100 µM (inactive) | > 41.1 µM (inactive) | > 100 µM (inactive) | 11.1 µM (inactive) | 0.383 µM (active) | > 100 µM (inactive) | > 100 µM (inactive) | 16.9 µM (inactive) | 
COc1c(OC)c(OC)c2c(=O)cc(-c3ccc(OC(C)C)cc3)oc2c1OC | 18.8 µM (inactive) | 26.1 µM (inactive) | > 35.9 µM (inactive) | 17.9 µM (inactive) | 26 µM (inactive) | 6.37 µM (inactive) | 29.4 µM (inactive) | 27.6 µM (inactive) | 16.5 µM (inactive) | 8.3 µM (inactive) | > 44 µM (inactive) | 5.25 µM (inactive) | 29.3 µM (inactive) | 3.87 µM (inactive) | > 38.9 µM (inactive) | 8.17 µM (inactive) | 30.9 µM (inactive) | 31.8 µM (inactive) | 16.7 µM (inactive) | 15.8 µM (inactive)
CC(=O)c1cccc(Nc2c3ccccc3nc3occc23)c1 | 13 µM (inactive) | 11 µM (inactive) | 16.1 µM (inactive) | 1.82 µM (inactive) | 1.07 µM (active) | 3.3 µM (inactive) | 3.83 µM (inactive) | 3.01 µM (inactive) | 0.438 µM (active) | 31.4 µM (inactive) |  | 3.26 µM (inactive) | 9.93 µM (inactive) | 5.27 µM (inactive) | 10.9 µM (inactive) | 11.5 µM (inactive) | 4.73 µM (inactive) | 2.58 µM (inactive) | 12.3 µM (inactive) | 9.04 µM (inactive)
CC1=C(/C=C/Cl)CC(Cl)C(C)(Cl)C1 (centres undefined) | > 100 µM (inactive) | > 100 µM (inactive) | > 100 µM (inactive) |  | > 100 µM (inactive) | 19.6 µM (inactive) | > 100 µM (inactive) | > 100 µM (inactive) | 83.8 µM (inactive) | > 100 µM (inactive) | > 100 µM (inactive) | > 100 µM (inactive) | > 100 µM (inactive) | 63.5 µM (inactive) | > 100 µM (inactive) | 53 µM (inactive) | > 100 µM (inactive) | > 100 µM (inactive) | > 100 µM (inactive) | > 100 µM (inactive)
O=C(c1cc2c(c3ccccc13)NC1(CCCCC1)N=C2C(F)(F)F)C(F)(F)F | 3.68 µM (inactive) | 5.35 µM (inactive) | 5.85 µM (inactive) | 2.85 µM (inactive) | 3.23 µM (inactive) | 3.39 µM (inactive) | 3.2 µM (inactive) | 3.83 µM (inactive) | 3.73 µM (inactive) | 7.83 µM (inactive) | 4.7 µM (inactive) | 4.3 µM (inactive) | 3.14 µM (inactive) | 3.29 µM (inactive) | 5.4 µM (inactive) | 3.69 µM (inactive) | 3.42 µM (inactive) | 3.72 µM (inactive) | 4.37 µM (inactive) | 3.78 µM (inactive)
O=C(O)CN1CCN2CCCCCCCCN(CC1)CCN(CC(=O)O)CC2 | > 100 µM (inactive) | > 100 µM (inactive) |  | > 100 µM (inactive) | > 100 µM (inactive) | > 100 µM (inactive) | > 100 µM (inactive) |  | > 100 µM (inactive) | > 100 µM (inactive) | > 100 µM (inactive) | > 100 µM (inactive) | > 100 µM (inactive) | > 100 µM (inactive) | > 100 µM (inactive) | > 100 µM (inactive) | 75.2 µM (inactive) | > 100 µM (inactive) | > 100 µM (inactive) | > 100 µM (inactive)
CCOP(=O)(O)C(Nc1ccc(/N=N/c2ccccc2)cc1)c1cccc(C(Nc2ccc(/N=N/c3ccccc3)cc2)P(=O)(O)OCC)c1 (centres undefined) | 23.9 µM (inactive) | 80.9 µM (inactive) | 69.8 µM (inactive) | 55.3 µM (inactive) | 58.7 µM (inactive) | 15.5 µM (inactive) | 24 µM (inactive) | 71.1 µM (inactive) | 47.2 µM (inactive) | 23 µM (inactive) | 35.2 µM (inactive) | 19 µM (inactive) | 58.6 µM (inactive) | 16.7 µM (inactive) | 59.8 µM (inactive) | 41.4 µM (inactive) | 32.6 µM (inactive) | 60.5 µM (inactive) | 45.2 µM (inactive) | 29.4 µM (inactive)
O=C1C=CC(=O)N1c1ccc2c(c1)Cc1cc(NC(=O)C(F)(F)F)ccc1-2 | 17.1 µM (inactive) | 16 µM (inactive) | 19.1 µM (inactive) | 15.7 µM (inactive) | 17.4 µM (inactive) | 3.96 µM (inactive) | > 100 µM (inactive) | 16.4 µM (inactive) | 17.3 µM (inactive) | 20 µM (inactive) | 9.84 µM (inactive) | 9.25 µM (inactive) | 16.4 µM (inactive) | 4.25 µM (inactive) | > 47 µM (inactive) | 16.8 µM (inactive) | 18.5 µM (inactive) | 17.1 µM (inactive) | 16.6 µM (inactive) | 16.8 µM (inactive)
C(=N\Nc1nnc(-c2nnc(N/N=C/c3ccccc3)o2)o1)/c1ccccc1 | > 10 µM (inactive) | > 10 µM (inactive) | > 10 µM (inactive) | > 10 µM (inactive) | > 10 µM (inactive) | > 10 µM (inactive) | > 10 µM (inactive) | > 10 µM (inactive) | > 10 µM (inactive) | > 10 µM (inactive) | > 10 µM (inactive) | > 10 µM (inactive) | > 10 µM (inactive) | > 10 µM (inactive) | > 10 µM (inactive) | > 10 µM (inactive) | > 10 µM (inactive) | > 10 µM (inactive) | > 10 µM (inactive) | > 10 µM (inactive)
CC1CCOc2ccc(cc2)/C=N\c2ccc(cc2)CCc2ccc(cc2)/N=C\c2ccc(cc2)OCC1 | > 100 µM (inactive) | > 100 µM (inactive) | > 100 µM (inactive) | > 100 µM (inactive) | > 100 µM (inactive) | 29.8 µM (inactive) | 70.3 µM (inactive) | > 100 µM (inactive) | > 100 µM (inactive) | > 100 µM (inactive) | > 100 µM (inactive) | > 100 µM (inactive) | > 100 µM (inactive) | > 100 µM (inactive) | > 100 µM (inactive) | 60.5 µM (inactive) | > 100 µM (inactive) | > 100 µM (inactive) | > 100 µM (inactive) | > 100 µM (inactive)
Cc1nnc2n1N=C(c1ccccc1)/C(=C/c1ccc(-c3ccc(Cl)cc3)o1)S2 | 11.9 µM (inactive) | 14.3 µM (inactive) | 14.3 µM (inactive) | 10.5 µM (inactive) | 4.61 µM (inactive) | 2.71 µM (inactive) | 15.9 µM (inactive) | 15.9 µM (inactive) | 15.7 µM (inactive) | 17.3 µM (inactive) | 5 µM (inactive) | 7.85 µM (inactive) | 15.1 µM (inactive) | 3.55 µM (inactive) | 16.6 µM (inactive) | 17.5 µM (inactive) | 13.4 µM (inactive) | 11.6 µM (inactive) | 11.4 µM (inactive) | 12.4 µM (inactive)
N#Cc1cc(-c2nc3ccc(F)cc3s2)ccc1N | > 100 µM (inactive) | > 100 µM (inactive) | > 100 µM (inactive) | > 100 µM (inactive) | 17.7 µM (inactive) | > 100 µM (inactive) | > 100 µM (inactive) | > 100 µM (inactive) | > 100 µM (inactive) | > 100 µM (inactive) | > 100 µM (inactive) | 80.4 µM (inactive) | > 100 µM (inactive) | > 100 µM (inactive) | > 100 µM (inactive) | > 100 µM (inactive) | > 100 µM (inactive) | 22.1 µM (inactive) | > 100 µM (inactive) | > 100 µM (inactive)
CC(=O)N/N=C1\NC(=O)C[C@H]2[C@@H]3CC=C4C[C@@H](OC(C)=O)CC[C@]4(C)[C@H]3CC[C@]12C | 29.9 µM (inactive) | 74 µM (inactive) | 27.7 µM (inactive) | > 100 µM (inactive) | 4.06 µM (inactive) | > 100 µM (inactive) | 14.1 µM (inactive) | 49.9 µM (inactive) | 11.2 µM (inactive) | 18.7 µM (inactive) | 23.7 µM (inactive) | > 100 µM (inactive) | 18.7 µM (inactive) | > 100 µM (inactive) | 17.4 µM (inactive) | 15.9 µM (inactive) | 38.9 µM (inactive) | 7.16 µM (inactive) | 12.4 µM (inactive) | 16.8 µM (inactive)
Nc1ncnc2c1ncn2C1OC(CO)C(O)C(O)C1O (centres undefined) | > 100 µM (inactive) | > 100 µM (inactive) | > 100 µM (inactive) | > 100 µM (inactive) | > 100 µM (inactive) | > 100 µM (inactive) | > 100 µM (inactive) | > 100 µM (inactive) | > 100 µM (inactive) | > 100 µM (inactive) | > 100 µM (inactive) | > 100 µM (inactive) | > 100 µM (inactive) | > 100 µM (inactive) | > 100 µM (inactive) | > 100 µM (inactive) | > 100 µM (inactive) | > 100 µM (inactive) | > 100 µM (inactive) | 

From ChEMBL document CHEMBL1201862, “PubChem BioAssay data set” (2004)
